From US9133183B2, “Imidazolidinones and analogs exhibiting anti-cancer and anti-proliferative activities” (Deciphera Pharmaceuticals, LLC, priority 2013, dated 2015)
pIC50: −log10 of the molar value.

Legend:
[1] = tested on: M-NFS-60 cells; test: M-NFS-60 cell proliferation assay (resazurin); assay type: cell-based; settings: 67 h incubation
Method in brief: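 Cells kept in medium containing 20 ng/mL mouse recombinant M-CSF. Fluorescence was read at ex 540/em 600 nm, and IC50 was fitted from percent inhibition across a range of inhibitor concentrations.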

[2] = tested on: osteoclast precursors; test: Osteoclast tartrate-resistant acid phosphatase assay; assay type: cell-based; settings: Osteoclast, 7-14 days, RANKL and M-CSF
[3] = biological target: unphosphorylated c-FMS kinase (uFMS, Seq. ID no. 1) (Homo sapiens (Human), UniProt P07333); test: uFMS kinase assay (ADP production coupled to pyruvate kinase/lactate dehydrogenase); assay type: biochemical; settings: enzymatic assay, ATP 500 μM; read-out: uFMS
Chain of unphosphorylated c-FMS kinase (uFMS, Seq. ID no. 1) (P07333 538-972): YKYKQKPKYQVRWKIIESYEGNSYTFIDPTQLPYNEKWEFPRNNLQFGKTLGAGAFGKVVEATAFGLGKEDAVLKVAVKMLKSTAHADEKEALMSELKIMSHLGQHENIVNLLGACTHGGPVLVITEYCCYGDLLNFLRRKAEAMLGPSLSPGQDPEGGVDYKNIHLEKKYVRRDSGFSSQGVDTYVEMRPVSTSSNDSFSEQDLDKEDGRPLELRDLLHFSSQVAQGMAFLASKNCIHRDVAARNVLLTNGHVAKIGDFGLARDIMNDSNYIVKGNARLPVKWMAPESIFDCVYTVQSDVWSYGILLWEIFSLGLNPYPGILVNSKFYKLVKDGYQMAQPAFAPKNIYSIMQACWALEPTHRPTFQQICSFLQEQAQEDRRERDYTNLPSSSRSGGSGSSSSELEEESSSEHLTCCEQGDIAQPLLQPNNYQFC
Method in brief: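 Unphosphorylated FMS (10 nM) with polyE4Y 1 mg/mL and 500 μM ATP in 90 mM Tris pH 7.5, 10 mM MgCl2, 0.2% octyl-glucoside, 1% DMSO. ADP formation was coupled via pyruvate kinase/LDH to NADH oxidation, followed at A340 for 4 h at 30° C.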

[4] = biological target: c-FMS kinase in THP-1 cells (Homo sapiens (Human), UniProt P07333); test: Phospho-FMS ELISA assay in THP-1 cells; assay type: cell-based; settings: 4 h compound, M-CSF stimulation 5 min; read-out: pFMS inhibition in THP-1 cells
Chain of c-FMS kinase in THP-1 cells (P07333 20-972): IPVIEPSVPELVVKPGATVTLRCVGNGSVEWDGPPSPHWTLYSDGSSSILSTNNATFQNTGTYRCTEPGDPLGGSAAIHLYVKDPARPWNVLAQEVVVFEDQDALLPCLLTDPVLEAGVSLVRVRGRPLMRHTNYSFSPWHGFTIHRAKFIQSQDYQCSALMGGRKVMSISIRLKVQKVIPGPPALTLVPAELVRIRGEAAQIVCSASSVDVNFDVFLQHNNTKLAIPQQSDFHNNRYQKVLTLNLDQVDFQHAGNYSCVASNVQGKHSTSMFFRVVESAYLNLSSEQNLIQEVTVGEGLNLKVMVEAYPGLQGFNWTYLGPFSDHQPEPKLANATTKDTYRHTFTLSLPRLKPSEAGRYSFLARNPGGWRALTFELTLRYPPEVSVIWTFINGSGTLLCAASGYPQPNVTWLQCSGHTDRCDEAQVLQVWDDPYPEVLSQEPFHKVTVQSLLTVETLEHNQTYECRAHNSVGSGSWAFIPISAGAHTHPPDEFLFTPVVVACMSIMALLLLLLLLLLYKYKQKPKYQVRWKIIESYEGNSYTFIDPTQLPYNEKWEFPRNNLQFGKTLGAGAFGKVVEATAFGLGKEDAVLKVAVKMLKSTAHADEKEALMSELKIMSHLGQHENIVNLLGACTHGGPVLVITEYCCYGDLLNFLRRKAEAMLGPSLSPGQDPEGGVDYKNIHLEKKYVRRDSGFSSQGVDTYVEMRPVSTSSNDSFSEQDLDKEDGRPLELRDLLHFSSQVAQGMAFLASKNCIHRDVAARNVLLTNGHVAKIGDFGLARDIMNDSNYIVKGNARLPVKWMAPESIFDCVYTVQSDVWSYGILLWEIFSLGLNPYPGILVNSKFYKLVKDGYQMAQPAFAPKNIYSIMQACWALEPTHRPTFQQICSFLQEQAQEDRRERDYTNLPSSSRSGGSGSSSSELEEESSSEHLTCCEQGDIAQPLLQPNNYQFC
Description: THP-1 cells (catalog #TIB-202) were obtained from the ATCC. Briefly, cells were grown in RPMI 1640 supplemented with 10% characterized fetal bovine serum, 1% sodium pyruvate, 1% Penicillin-Streptomycin-Glutamine (PSG) and 55 uM 2-mercaptoethanol (Invitrogen, Carlsbad, Calif.) at 37 degrees Celsius, 5% CO2, 95% humidity. Cells were allowed to expand until reaching 70-95% confluency at which point they were subcultured or harvested for assay use.
A serial dilution of test compound was diluted 1:100 in assay medium (RPMI 1640 supplemented with 10% characterized fetal bovine serum) in a 96 well black clear bottom plate (Corning, Corning, N.Y.). In a separate 96 well black clear bottom plate, one hundred and fifty thousand THP-1 cells were added per well in 100 μL in assay medium. Fifty microliters of diluted compound was then added to the cells. Plates were incubated for 4 hours at 37 degrees Celsius, 5% CO2, 95% humidity. At the end of the incubation period, cells were stimulated with 50 μL of a 100 nM solution of recombinant human M-CSF (catalog #216-MC, R & D Systems, Minneapolis, Minn.) in assay medium and the plate was incubated for 5 minutes at 37 degrees Celsius, 5% CO2, 95% humidity. Lysates were prepared and used to perform the phospho-FMS ELISA as described by the manufacturer (catalog #DYC3268, R & D Systems, Minneapolis, Minn.). GraphPad Prism was used to calculate IC50 values obtained from data generated from the ELISA assay.

[5] = biological target: unphosphorylated c-KIT kinase (uKIT, Seq. ID no. 2) (Homo sapiens (Human), UniProt P10721); test: uKit kinase assay (coupled pyruvate kinase/lactate dehydrogenase); assay type: biochemical; settings: enzymatic assay, ATP 2000 μM
Chain of unphosphorylated c-KIT kinase (uKIT, Seq. ID no. 2) (P10721 other isoform, or with tags, fused parts or gaps): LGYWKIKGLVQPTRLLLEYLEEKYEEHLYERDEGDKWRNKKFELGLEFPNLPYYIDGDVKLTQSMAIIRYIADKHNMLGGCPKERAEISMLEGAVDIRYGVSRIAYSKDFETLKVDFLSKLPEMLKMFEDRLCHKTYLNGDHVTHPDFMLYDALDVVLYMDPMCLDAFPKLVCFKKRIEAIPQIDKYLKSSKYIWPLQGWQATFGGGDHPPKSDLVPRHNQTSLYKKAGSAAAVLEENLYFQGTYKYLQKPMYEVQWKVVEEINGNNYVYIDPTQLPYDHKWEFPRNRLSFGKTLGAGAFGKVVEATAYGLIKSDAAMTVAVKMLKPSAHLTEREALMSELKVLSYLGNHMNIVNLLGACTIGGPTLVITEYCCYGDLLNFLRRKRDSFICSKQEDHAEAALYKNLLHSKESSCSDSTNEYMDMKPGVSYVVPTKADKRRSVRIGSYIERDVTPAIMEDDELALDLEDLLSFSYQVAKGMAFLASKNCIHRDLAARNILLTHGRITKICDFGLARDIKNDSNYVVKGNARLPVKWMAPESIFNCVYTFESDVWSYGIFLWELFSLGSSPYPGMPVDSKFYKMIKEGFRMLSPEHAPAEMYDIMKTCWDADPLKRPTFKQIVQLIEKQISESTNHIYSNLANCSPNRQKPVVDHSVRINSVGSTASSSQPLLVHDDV
Method in brief: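 The read-out was a continuous PK/LDH-coupled decrease in NADH absorbance at 340 nm, monitored at 30 °C over 4 h. IC50 came from % inhibition based on rates at 3–4 h. The GST-tagged unphosphorylated KIT (12 nM) was used with polyE4Y substrate, 2000 μM ATP and 10 mM Mg2+ at pH 7.5, with serially diluted compound.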

[6] = biological target: unphosphorylated PDGFRβ kinase (uPDGFRβ, Seq. ID No. 3) (Homo sapiens (Human), UniProt P09619); test: Unphosphorylated PDGFRβ kinase assay (coupled pyruvate kinase/lactate dehydrogenase); assay type: biochemical; settings: enzymatic assay, ATP 500 μM
Chain of unphosphorylated PDGFRβ kinase (uPDGFRβ, Seq. ID No. 3) (P09619 557-1106): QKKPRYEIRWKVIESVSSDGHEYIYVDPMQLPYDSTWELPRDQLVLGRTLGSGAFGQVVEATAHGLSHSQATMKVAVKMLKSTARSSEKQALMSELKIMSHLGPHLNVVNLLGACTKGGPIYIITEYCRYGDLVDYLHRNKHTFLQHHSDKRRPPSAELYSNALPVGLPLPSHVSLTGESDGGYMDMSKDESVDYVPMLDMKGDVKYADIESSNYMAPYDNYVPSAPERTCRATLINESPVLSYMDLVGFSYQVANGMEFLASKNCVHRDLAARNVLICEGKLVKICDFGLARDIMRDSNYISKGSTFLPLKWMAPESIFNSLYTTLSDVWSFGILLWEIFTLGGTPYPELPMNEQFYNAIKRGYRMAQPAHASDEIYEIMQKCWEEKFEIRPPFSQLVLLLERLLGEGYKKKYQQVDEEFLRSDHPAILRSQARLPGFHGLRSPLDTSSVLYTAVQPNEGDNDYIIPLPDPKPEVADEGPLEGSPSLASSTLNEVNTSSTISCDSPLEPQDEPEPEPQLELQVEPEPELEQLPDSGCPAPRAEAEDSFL
Description: Unphosphorylated PDGFRβ (uPDGFRβ) Kinase (Seq. ID No. 3) Assay
Activity of unphosphorylated PDGFRβ kinase (uPDGFRβ, Seq. ID No. 3) was determined by following the production of ADP from the kinase reaction with ATP and poly E4Y as substrates through coupling with the pyruvate kinase/lactate dehydrogenase system (e.g., Schindler et al. Science (2000) 289: 1938-1942). In this assay, the oxidation of NADH (thus the decrease at A340 nm) was continuously monitored spectrophometrically. The reaction mixture (100 μL) contained PDGFRβ (DeCode, 15.7 nM), polyE4Y (2.5 mg/mL), MgCl2 (10 mM), pyruvate kinase (4 units), lactate dehydrogenase (0.7 units), phosphoenol pyruvate (1 mM) and NADH (0.28 mM) and ATP (500 μM) in a 90 mM Tris buffer containing 0.2% octyl-glucoside and 1% DMSO, at pH 7.5. The inhibition reaction was started by mixing serial diluted test compound with the above reaction mixture. The absorption at 340 nm was monitored continuously for 4 h at 30° C. on a Polarstar Optima or Synergy 2 plate reader. The reaction rate was calculated using the 1.5 to 2.5 h time frame. Percent inhibition was obtained by comparison of reaction rate with that of a control (i.e., with no test compound). IC50 values were calculated from a series of percent inhibition values determined at a range of inhibitor concentrations using software routines as implemented in the GraphPad Prism software package.
uPDGFRβ Kinase Sequence (Residues 557-1106) Used for Screening (Seq ID No. 3)

Row | pIC50 [2] | pIC50 [3] | pIC50 [4] | pIC50 [5] | pIC50 [6] | Compound | pIC50 [1]
1 | 7.00 to 8.00 | 7.00 to 8.00 | 7.00 to 8.00 | – | – | Cn1cc(-c2cc(Oc3ccc(NC(=O)N4CCN(C5CCOCC5)C4=O)nc3)ncn2)cn1 [Example 8, N-(5-((6-(1-methyl-1H-pyrazol-4-yl)pyrimidin-4-yl)oxy)pyridin-2-yl)-2-oxo-3-(tetrahydro-2H-pyran-4-yl)imidazolidine-1-carboxamide] | 6.00 to 7.00
2 | 7.00 to 8.00 | 7.00 to 8.00 | 7.00 to 8.00 | – | – | Cc1nc(NC(=O)N2CCN(C3CCOCC3)C2=O)ccc1Oc1ccnc(-c2cn[nH]c2)c1 [Example 9, N-(5-((2-(1H-pyrazol-4-yl)pyridin-4-yl)oxy)-6-methylpyridin-2-yl)-2-oxo-3-(tetrahydro-2H-pyran-4-yl)imidazolidine-1-carboxamide] | 6.00 to 7.00
3 | > 8.00 | > 8.00 | – | > 8.00 | 7.00 to 8.00 | Cc1cc(NC(=O)N2CCN(C3CCCC3)C2=O)nc(C)c1Oc1ccnc(-c2cnn(C)c2)c1 [Example 72, 3-cyclopentyl-N-(4,6-dimethyl-5-((2-(1-methyl-1H-pyrazol-4-yl)pyridin-4-yl)oxy)pyridin-2-yl)-2-oxoimidazolidine-1-carboxamide] | > 8.00
4 | 7.00 to 8.00 | > 8.00 | – | 6.00 to 7.00 | < 6.00 | COCCN1CCN(C(=O)Nc2ccc(Oc3ccnc(-c4ccc(C5CCN(C)CC5)cc4)c3)c(C)n2)C1=O [Example 80, 3-(2-methoxyethyl)-N-(6-methyl-5-((2-(4-(1-methylpiperidin-4-yl)phenyl)pyridin-4-yl)oxy)pyridin-2-yl)-2-oxoimidazolidine-1-carboxamide] | 7.00 to 8.00
5 | 7.00 to 8.00 | 7.00 to 8.00 | – | 7.00 to 8.00 | 6.00 to 7.00 | Cn1cnc(-c2cc(Oc3ccc(NC(=O)N4CCN(C5CCOCC5)C4=O)nc3)ccn2)c1 [Example 83, N-(5-((2-(1-methyl-1H-imidazol-4-yl)pyridin-4-yl)oxy)pyridin-2-yl)-2-oxo-3-(tetrahydro-2H-pyran-4-yl)imidazolidine-1-carboxamide] | 7.00 to 8.00
6 | 7.00 to 8.00 | 7.00 to 8.00 | – | 7.00 to 8.00 | < 6.00 | Cn1cnc(-c2cc(Oc3ccc(NC(=O)N4CCN(CC(F)(F)F)C4=O)nc3)ccn2)c1 [Example 84, N-(5-((2-(1-methyl-1H-imidazol-4-yl)pyridin-4-yl)oxy)pyridin-2-yl)-2-oxo-3-(2,2,2-trifluoroethyl)imidazolidine-1-carboxamide] | 7.00 to 8.00
7 | > 8.00 | > 8.00 | – | 7.00 to 8.00 | < 6.00 | Cc1nc(NC(=O)N2CCN(C3CC3)C2=O)ccc1Oc1ccnc(-c2ccc(C3CCN(C)CC3)cc2)c1 [Example 86, 3-cyclopropyl-N-(6-methyl-5-((2-(4-(1-methylpiperidin-4-yl)phenyl)pyridin-4-yl)oxy)pyridin-2-yl)-2-oxoimidazolidine-1-carboxamide] | > 8.00
8 | 6.00 to 7.00 | 6.00 to 7.00 | – | 6.00 to 7.00 | < 6.00 | Cc1cn(-c2cc(Oc3cnc(NC(=O)N4CCN(C)C4=O)cc3C)ccn2)cn1 [Example 89, 3-methyl-N-(4-methyl-5-((2-(4-methyl-1H-imidazol-1-yl)pyridin-4-yl)oxy)pyridin-2-yl)-2-oxoimidazolidine-1-carboxamide] | < 6.00
9 | 6.00 to 7.00 | 7.00 to 8.00 | 7.00 to 8.00 | – | – | O=C(Nc1cc(Cl)c(Oc2ccnc(-c3cn[nH]c3)c2)cc1F)N1CCN(C2CCOCC2)C1=O [Example 94, N-(4-((2-(1H-pyrazol-4-yl)pyridin-4-yl)oxy)-5-chloro-2-fluorophenyl)-2-oxo-3-(tetrahydro-2H-pyran-4-yl)imidazolidine-1-carboxamide] | 6.00 to 7.00
10 | 6.00 to 7.00 | 7.00 to 8.00 | 7.00 to 8.00 | – | – | Cn1cc(-c2cc(Oc3ccc(NC(=O)N4CCN(C5CCOCC5)C4=O)cc3Cl)ccn2)cn1 [Example 96, N-(3-chloro-4-((2-(1-methyl-1H-pyrazol-4-yl)pyridin-4-yl)oxy)phenyl)-2-oxo-3-(tetrahydro-2H-pyran-4-yl)imidazolidine-1-carboxamide] | < 6.00
11 | 6.00 to 7.00 | 7.00 to 8.00 | 6.00 to 7.00 | – | – | CC(=O)Nc1cc(Oc2cc(F)c(NC(=O)N3CCN(C4CCOCC4)C3=O)cc2Cl)ccn1 [Example 97, N-(4-((2-acetamidopyridin-4-yl)oxy)-5-chloro-2-fluorophenyl)-2-oxo-3-(tetrahydro-2H-pyran-4-yl)imidazolidine-1-carboxamide] | 6.00 to 7.00
12 | 6.00 to 7.00 | 7.00 to 8.00 | – | 7.00 to 8.00 | < 6.00 | Cn1cc(-c2cc(Oc3cc(F)c(NC(=O)N4CCN(C5CCOCC5)C4=O)cc3Br)ccn2)cn1 [Example 109, N-(5-bromo-2-fluoro-4-((2-(1-methyl-1H-pyrazol-4-yl)pyridin-4-yl)oxy)phenyl)-2-oxo-3-(tetrahydro-2H-pyran-4-yl)imidazolidine-1-carboxamide] | 7.00 to 8.00
13 | 7.00 to 8.00 | 6.00 to 7.00 | – | 6.00 to 7.00 | < 6.00 | CCN1CCN(C(=O)Nc2ccc(Oc3ccnc(C(=O)NC)c3)cn2)C1=O [Example 115, 4-((6-(3-ethyl-2-oxoimidazolidine-1-carboxamido)pyridin-3-yl)oxy)-N-methylpicolinamide] | < 6.00
14 | 7.00 to 8.00 | 7.00 to 8.00 | – | 7.00 to 8.00 | < 6.00 | COCCN1CCN(C(=O)Nc2ccc(Oc3ccnc(NC(=O)N(C)C)c3)cn2)C1=O [Example 116, N-(5-((2-(3,3-dimethylureido)pyridin-4-yl)oxy)pyridin-2-yl)-3-(2-methoxyethyl)-2-oxoimidazolidine-1-carboxamide] | 6.00 to 7.00
15 | 6.00 to 7.00 | 7.00 to 8.00 | – | 6.00 to 7.00 | 6.00 to 7.00 | CC(=O)Nc1cc(Oc2ccc(NC(=O)N3CCN(C4CCOCC4)C3=O)nc2C)ccn1 [Example 121, N-(5-((2-acetamidopyridin-4-yl)oxy)-6-methylpyridin-2-yl)-2-oxo-3-(tetrahydro-2H-pyran-4-yl)imidazolidine-1-carboxamide] | 6.00 to 7.00
16 | 6.00 to 7.00 | 7.00 to 8.00 | – | < 6.00 | < 6.00 | CCN1CCN(C(=O)Nc2ccc(Oc3ccnc(NC(C)=O)c3)c(C)n2)C1=O [Example 122, N-(5-((2-acetamidopyridin-4-yl)oxy)-6-methylpyridin-2-yl)-3-ethyl-2-oxoimidazolidine-1-carboxamide] | 6.00 to 7.00
